In patent US11912701B2, “Protein kinase inhibitors for promoting liver regeneration or reducing or preventing hepatocyte death” (HEPAREGENIX GMBH, priority 2018, dated 2024):

Assays:
JNK1 [1] = target: T1, JNK1 (Homo sapiens, UniProt P45983); experiment: 33PanQinase enzyme assay, JNK1; format: biochemical; set-up: purchased ProQinase GmbH, Freiburg, Germany (33PanQinase Assay Service); settings: ratio IC50(JNK1)/IC50(MKK4)
How it was run: (§1)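 Off-target selectivity is the ratio IC50(off-target)/IC50(MKK4), with IC50 values from least-squares fitting and single-point data as % residual activity. Reactions of enzyme/substrate mix, ATP and compound ran 60 min at 30° C before H3PO4 stop; ^33P incorporation read on a scintillation counter.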
Target sequence in this assay (P45983 whole entry): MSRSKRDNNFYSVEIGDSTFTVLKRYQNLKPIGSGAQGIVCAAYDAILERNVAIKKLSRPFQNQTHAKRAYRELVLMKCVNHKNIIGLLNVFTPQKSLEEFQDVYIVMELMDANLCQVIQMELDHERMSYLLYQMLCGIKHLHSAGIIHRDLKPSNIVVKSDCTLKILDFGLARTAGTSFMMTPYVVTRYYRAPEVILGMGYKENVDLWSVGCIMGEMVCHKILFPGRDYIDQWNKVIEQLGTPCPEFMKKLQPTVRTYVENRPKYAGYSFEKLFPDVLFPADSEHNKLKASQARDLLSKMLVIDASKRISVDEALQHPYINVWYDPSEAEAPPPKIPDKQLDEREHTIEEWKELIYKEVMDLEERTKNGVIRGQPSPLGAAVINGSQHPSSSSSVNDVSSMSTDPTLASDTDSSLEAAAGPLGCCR

MKK4 [2] = target: T2, MKK4 (Homo sapiens, UniProt P45985); experiment: 33PanQinase enzyme assay, MKK4; format: biochemical; settings: assay 'IC50'; read-out: Potency MKK4 (IC50)
T2 construct: purchased ProQinase GmbH, Freiburg, Germany (33PanQinase Assay Service)
T2 sequence (P45985 1-399): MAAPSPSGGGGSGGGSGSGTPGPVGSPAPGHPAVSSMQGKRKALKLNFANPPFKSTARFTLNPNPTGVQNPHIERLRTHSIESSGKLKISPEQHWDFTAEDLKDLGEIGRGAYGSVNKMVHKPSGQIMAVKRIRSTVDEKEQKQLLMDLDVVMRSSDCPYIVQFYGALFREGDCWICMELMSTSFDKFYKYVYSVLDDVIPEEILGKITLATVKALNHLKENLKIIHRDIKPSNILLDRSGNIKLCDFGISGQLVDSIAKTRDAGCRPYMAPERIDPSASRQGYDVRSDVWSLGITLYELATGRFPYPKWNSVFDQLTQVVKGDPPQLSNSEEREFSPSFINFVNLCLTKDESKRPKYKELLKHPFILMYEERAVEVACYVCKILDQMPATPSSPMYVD
How it was run: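 Inhibition measured as 33Pi transfer to substrate after a 60-min, 30 °C reaction, acid-stopped and scintillation-counted.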

MKK7 [3] = target: T3, MKK7 (Homo sapiens, UniProt O14733); experiment: KINOMEscan competition binding assay, MKK7; set-up: M1/R419; host or cells: HEK-293; settings: ratio PoC (off-target)/PoC (MKK4)
T3 sequence (O14733 1-419): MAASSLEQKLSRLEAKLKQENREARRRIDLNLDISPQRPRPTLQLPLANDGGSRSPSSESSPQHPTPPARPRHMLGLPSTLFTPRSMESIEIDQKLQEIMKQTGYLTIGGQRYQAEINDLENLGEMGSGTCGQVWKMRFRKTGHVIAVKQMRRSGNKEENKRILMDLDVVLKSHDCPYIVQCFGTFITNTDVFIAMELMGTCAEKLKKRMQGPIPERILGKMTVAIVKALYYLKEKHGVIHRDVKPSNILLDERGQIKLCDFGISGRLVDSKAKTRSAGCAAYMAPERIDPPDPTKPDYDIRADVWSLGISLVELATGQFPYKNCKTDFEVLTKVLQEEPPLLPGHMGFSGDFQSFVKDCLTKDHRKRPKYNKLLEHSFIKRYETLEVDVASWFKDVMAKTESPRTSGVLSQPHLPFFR
How it was run: (§2)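 DNA-tagged kinases expressed in HEK-293 cells compete between immobilized ligand on blocked beads and test compound at 100 nM; kinase retained on beads quantified by qPCR of the tag.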

MKK7 [4] = target: T3, MKK7; experiment: 33PanQinase enzyme assay, MKK7; format: biochemical; set-up: purchased ProQinase GmbH, Freiburg, Germany (33PanQinase Assay Service); settings: ratio IC50(MKK7)/IC50(MKK4)
How it was run: as §1

JNK1 [5] = target: T1, JNK1; experiment: KINOMEscan competition binding assay, JNK1; set-up: M1/Q384; host or cells: HEK-293; settings: ratio PoC (off-target)/PoC (MKK4)
How it was run: as §2
Target sequence in this assay (P45983 1-384 isoform P45983-2): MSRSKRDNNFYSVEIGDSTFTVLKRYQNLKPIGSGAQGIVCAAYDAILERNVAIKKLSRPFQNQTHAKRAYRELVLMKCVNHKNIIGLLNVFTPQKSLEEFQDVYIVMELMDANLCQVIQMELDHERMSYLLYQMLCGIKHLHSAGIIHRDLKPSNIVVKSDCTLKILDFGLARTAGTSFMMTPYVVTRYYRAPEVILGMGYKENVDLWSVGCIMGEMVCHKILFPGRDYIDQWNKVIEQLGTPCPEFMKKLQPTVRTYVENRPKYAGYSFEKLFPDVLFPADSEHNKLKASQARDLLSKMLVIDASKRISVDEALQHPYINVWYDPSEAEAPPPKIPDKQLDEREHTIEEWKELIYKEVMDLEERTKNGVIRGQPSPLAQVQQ

BRaf [6] = target: T4, BRaf (Homo sapiens, UniProt P15056); experiment: KINOMEscan competition binding assay, BRaf; settings: ratio PoC (off-target)/PoC (MKK4)
T4 construct: purchased ProQinase GmbH, Freiburg, Germany (33PanQinase Assay Service)
How it was run: as §2

MKK4 [7] = target: T5, MKK4 (Homo sapiens, UniProt P45985); experiment: KINOMEscan competition binding assay, MKK4; settings: residual percent of control binding (PoC) at 100 nM
T5 construct: S84/D399; host or cells: HEK-293
T5 sequence (P45985 84-399): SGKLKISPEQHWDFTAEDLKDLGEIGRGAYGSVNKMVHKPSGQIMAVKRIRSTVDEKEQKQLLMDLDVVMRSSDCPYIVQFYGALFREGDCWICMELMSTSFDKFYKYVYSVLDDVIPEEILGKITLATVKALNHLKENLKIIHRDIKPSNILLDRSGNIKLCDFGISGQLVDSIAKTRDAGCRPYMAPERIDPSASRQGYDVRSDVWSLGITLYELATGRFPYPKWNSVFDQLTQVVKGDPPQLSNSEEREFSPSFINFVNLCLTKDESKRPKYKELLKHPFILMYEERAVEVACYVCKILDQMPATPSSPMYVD
How it was run: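 Tested at 100 nM and reported as percent of control binding (PoC). MKK4 was produced in HEK-293 cells and DNA-tagged. Displacement from ligand-coated, blocked beads was read by qPCR of eluted kinase.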

BRaf [8] = target: T4, BRaf; experiment: 33PanQinase enzyme assay, BRaf; format: biochemical; settings: ratio IC50(BRaf)/IC50(MKK4)
How it was run: as §1

T4 sequence (P15056 whole entry, species assumed): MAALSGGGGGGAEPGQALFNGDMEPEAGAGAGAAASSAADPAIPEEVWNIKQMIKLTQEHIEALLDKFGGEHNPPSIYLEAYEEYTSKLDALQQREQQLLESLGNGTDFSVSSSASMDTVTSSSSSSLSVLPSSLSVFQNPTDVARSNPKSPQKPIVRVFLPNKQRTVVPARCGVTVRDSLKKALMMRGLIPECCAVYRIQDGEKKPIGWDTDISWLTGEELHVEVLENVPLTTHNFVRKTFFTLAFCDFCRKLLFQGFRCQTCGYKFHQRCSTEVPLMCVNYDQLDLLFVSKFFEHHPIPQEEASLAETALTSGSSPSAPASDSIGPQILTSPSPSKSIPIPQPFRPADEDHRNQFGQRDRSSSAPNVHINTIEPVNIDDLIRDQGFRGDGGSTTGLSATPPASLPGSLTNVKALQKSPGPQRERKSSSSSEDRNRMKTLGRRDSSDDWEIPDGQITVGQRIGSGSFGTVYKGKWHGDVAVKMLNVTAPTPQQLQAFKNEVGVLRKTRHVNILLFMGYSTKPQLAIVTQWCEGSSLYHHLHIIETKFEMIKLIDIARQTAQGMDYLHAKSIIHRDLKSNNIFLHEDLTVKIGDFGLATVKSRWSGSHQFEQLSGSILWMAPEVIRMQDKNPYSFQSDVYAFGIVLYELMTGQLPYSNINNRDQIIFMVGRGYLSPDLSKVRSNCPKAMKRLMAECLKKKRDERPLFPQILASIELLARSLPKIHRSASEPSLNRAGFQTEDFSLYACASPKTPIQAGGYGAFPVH

| Structure (SMILES) | Selectivity JNK1, IC50(off-target)/IC50(MKK4) (JNK1 [1]) | IC50 (MKK4 [2]) | selectivity based on % Ctrl @100 nM vs. MKK7 (MKK7 [3]) | Selectivity IVIKK7, IC50(off-target)/IC50(MKK4) (MKK7 [4]) | selectivity based on % Ctrl @100 nM vs. JNK1 (JNK1 [5]) | selectivity based on % Ctrl @100 nM vs. Braf (BRaf [6]) | MKK4 [% Ctrl @ 100 nM (MKK4 [7]) | Selectivity Braf, IC50(off-target)/IC50(MKK4) (BRaf [8]) |
| --- | --- | --- | --- | --- | --- | --- | --- | --- |
| CCCS(=O)(=O)Nc1c(F)ccc(C(=O)c2c[nH]c3ncc(-c4cnc(Cl)cn4)cc23)c1F [Example 211, N-(3-(5-(5-chloropyrazin-2-yl)-1H-pyrrolo[2,3-b]pyridine-3-carbonyl)-2,6-difluorophenyl)propane-1-sulfonamide] | ++ (100 ≥ IC50(off-target)/IC50(MKK4) > 10) | 100 to 1000 nM | +++ (Ratio > 100) | +++ (IC50(off-target)/IC50(MKK4) > 100) | +++ (Ratio > 100) | +++ (Ratio > 100) | +++ (PoC < 1) | +++ (IC50(off-target)/IC50(MKK4) > 100) |
| C=Cc1ccc(-c2cnc3[nH]cc(C(=O)c4ccc(F)c(NS(=O)(=O)CCC)c4F)c3c2)cn1 [Example 163, N-(2,6-difluoro-3-(5-(6-vinylpyridin-3-yl)-1H-pyrrolo[2,3-b]pyridine-3-carbonyl)phenyl)propane-1-sulfonamide] | ++ (100 ≥ IC50(off-target)/IC50(MKK4) > 10) | < 100 nM | +++ (Ratio > 100) | +++ (IC50(off-target)/IC50(MKK4) > 100) | +++ (Ratio > 100) | +++ (Ratio > 100) | +++ (PoC < 1) | ++ (100 ≥ IC50(off-target)/IC50(MKK4) > 10) |
| CCCS(=O)(=O)Nc1c(F)ccc(C(=O)c2c[nH]c3ncc(-c4ccc(C)nc4)cc23)c1F [Example 229, N-(2,6-difluoro-3-(5-(6-methylpyridin-3-yl)-1H-pyrrolo[2,3-b]pyridine-3-carbonyl)phenyl)propane-1-sulfonamide] | +++ (IC50(off-target)/IC50(MKK4) > 100) | < 100 nM | +++ (Ratio > 100) | +++ (IC50(off-target)/IC50(MKK4) > 100) | +++ (Ratio > 100) | +++ (Ratio > 100) | +++ (PoC < 1) | +++ (IC50(off-target)/IC50(MKK4) > 100) |
| O=C(c1cccc(NS(=O)(=O)Cc2ccccc2)c1F)c1c[nH]c2ncc(-c3cc4c(cc3Cl)OCO4)cc12 [Example 128, N-(3-(5-(6-chlorobenzo[d][1,3]dioxol-5-yl)-1H-pyrrolo[2,3-b]pyridine-3-carbonyl)-2-fluorophenyl)-1-phenylmethanesulfonamide] | + (10 ≥ IC50(off-target)/IC50(MKK4) > 3) | 100 to 1000 nM | ++ (100 ≥ ratio > 10) | +++ (IC50(off-target)/IC50(MKK4) > 100) | ++ (100 ≥ ratio > 10) | ++ (100 ≥ ratio > 10) | ++ (1 ≤ PoC < 3) | +++ (IC50(off-target)/IC50(MKK4) > 100) |
| CCCS(=O)(=O)Nc1ccc(F)c(C(=O)c2c[nH]c3ncc(-c4cccc(O)c4)cc23)c1F [Example 101, N-(2,4-difluoro-3-(5-(3-hydroxyphenyl)-1H-pyrrolo[2,3-b]pyridine-3-carbonyl)phenyl)propane-1-sulfonamide] | ◯ (3 ≥ IC50(off-target)/IC50(MKK4)) | 100 to 1000 nM | ++ (100 ≥ ratio > 10) | +++ (IC50(off-target)/IC50(MKK4) > 100) | ++ (100 ≥ ratio > 10) | ◯ (3 ≥ Ratio) | ++ (1 ≤ PoC < 3) | ◯ (3 ≥ IC50(off-target)/IC50(MKK4)) |
| O=C(c1c(F)ccc(NS(=O)(=O)CCC(F)(F)F)c1F)c1c[nH]c2ncc(-c3ccc(N4CCOCC4)nc3)cc12 [Example 79, N-(2,4-difluoro-3-(5-(6-morpholinopyridin-3-yl)-1H-pyrrolo[2,3-b]pyridine-3-carbonyl)phenyl)-3,3,3-trifluoropropane-1-sulfonamide] | ++ (100 ≥ IC50(off-target)/IC50(MKK4) > 10) | < 100 nM | +++ (Ratio > 100) | +++ (IC50(off-target)/IC50(MKK4) > 100) | +++ (Ratio > 100) | +++ (Ratio > 100) | +++ (PoC < 1) | + (10 ≥ IC50(off-target)/IC50(MKK4) > 3) |
| O=C(c1cccc(NS(=O)(=O)Cc2ccccc2)c1F)c1c[nH]c2ncc(-c3ccc(Cl)cc3)cc12 [Example 124, N-(3-(5-(4-chlorophenyl)-1H-pyrrolo[2,3-b]pyridine-3-carbonyl)-2-fluorophenyl)-1-phenylmethanesulfonamide] | ◯ (3 ≥ IC50(off-target)/IC50(MKK4)) | 100 to 1000 nM | ++ (100 ≥ ratio > 10) | +++ (IC50(off-target)/IC50(MKK4) > 100) | ++ (100 ≥ ratio > 10) | ++ (100 ≥ ratio > 10) | + (3 ≤ PoC < 30) | +++ (IC50(off-target)/IC50(MKK4) > 100) |
| CCCS(=O)(=O)Nc1ccc(F)c(C(=O)c2c[nH]c3ncc(-c4ccc(S(N)(=O)=O)nc4)cc23)c1F [Example 53] | ◯ (3 ≥ IC50(off-target)/IC50(MKK4)) | 100 to 1000 nM | +++ (Ratio > 100) | +++ (IC50(off-target)/IC50(MKK4) > 100) | +++ (Ratio > 100) | + (10 ≥ ratio > 3) | +++ (PoC < 1) | ◯ (3 ≥ IC50(off-target)/IC50(MKK4)) |
| O=C(c1ccc(F)c(NS(=O)(=O)CCC(F)(F)F)c1F)c1c[nH]c2ncc(-c3cnc(NC4CC4)nc3)cc12 [Example 182] | +++ (IC50(off-target)/IC50(MKK4) > 100) | < 100 nM | +++ (Ratio > 100) | +++ (IC50(off-target)/IC50(MKK4) > 100) | +++ (Ratio > 100) | +++ (Ratio > 100) | +++ (PoC < 1) | +++ (IC50(off-target)/IC50(MKK4) > 100) |
